Test results from patent US20250176602A1, “Composition for Proliferation of Bacteroides uniformis in the Intestinal Tract” (Asahi Group Holdings, Ltd., priority 2019, published 2025).

Tests used:
[1] = Exercise performance test, 10 km SPIN CYCLE travel time (Example 6); format: in vivo, human; settings: after 8-week intake, about 1000 mg/day; p<0.05
Method: As the test subjects, 86 healthy males at the ages of 20 to 49 who have exercise habits of conducting exercise with an intensity of 5 METs or more for 30 minutes or more once or twice a week and who can continue the exercise habits during the test period as well were selected.
Among the 86 test subjects, 43 test subjects were selected as an α-cyclodextrin (αCD) intake group, and the remaining 43 test subjects were selected as a placebo group. The test subjects themselves were not informed who belonged to which group.
Test Supplements (tablets) having compositions described in Table 4 below were used. One tablet of the test supplements was of about 600 mg.
Each test subject of the αCD intake group and the placebo group was asked to take in 4 tablets of the above test supplements once a day at any timing. That is, each test subject of the α-cyclodextrin intake group was asked to take in about 1000 mg of α-cyclodextrin per day.
The intake period for the test supplements was set to 8 weeks, and the heart rate during exercise was measured, before the start of the intake, after 4-week intake, and after 8-week intake to evaluate change in heart rate. In addition, a questionnaire on fatigue feeling was conducted before the start of the intake of the test supplements and after 8-week intake, and change in travel time was evaluated. […]

[2] = test system: Bacteroides uniformis; assay: Proliferation of Bacteroides uniformis in the intestinal tract, quantification PCR of feces (Example 1); format: in vivo, human; settings: about 200 mg α-cyclodextrin per day, oral tablets; 8w vs 0w; p<0.05
Method: As test subjects, 21 healthy males at the ages of 20 to 49 who have exercise habits of conducting exercise with an intensity of 5 METs or more for 30 minutes or more once or twice a week and who can continue the exercise habits during the test period as well were selected. Among the 21 test subjects, 10 test subjects were selected as an α-cyclodextrin (αCD) intake group, and the remaining 11 test subjects were selected as a placebo group. The test subjects themselves were not informed who belonged to which group. Test Supplements (tablets) having compositions described in Table 1 below were used. One tablet of the test supplements was of about 250 mg. […] The intake period for the test supplements was set to 9 weeks, and change in gut flora was evaluated, a questionnaire on fatigue feeling was conducted, and change in travel time was evaluated, before the start of the intake, after 4-week intake, and after 8-week intake. […] DNA was extracted from the collected feces by a conventional method, and the absolute number of Bacteroides uniformis in the intestinal tract was evaluated by conducting quantification PCR (probe method) with a conventional method using a forward primer, a reverse primer, and a probe targeting a sequence specific to the 16Sr DNA sequence region of Bacteroides uniformis with reference to the description of Anaerobe (2011), 17, 64-68, Jia Tong et al.

OC[C@H]1O[C@@H]2O[C@H]3[C@H](O)[C@@H](O)[C@@H](O[C@H]4[C@H](O)[C@@H](O)[C@@H](O[C@H]5[C@H](O)[C@@H](O)[C@@H](O[C@H]6[C@H](O)[C@@H](O)[C@@H](O[C@H]7[C@H](O)[C@@H](O)[C@@H](O[C@H]1[C@H](O)[C@H]2O)O[C@@H]7CO)O[C@@H]6CO)O[C@@H]5CO)O[C@@H]4CO)O[C@@H]3CO [α-cyclodextrin]
travel time for 10 km, change vs before intake, compared with placebo group [1]: significantly less | bacterial cell number of Bacteroides uniformis in the intestinal tract, after 8-week intake as compared with before intake [2]: about 2.5 times
